Test results: patent US6897209B2, “Labelled factor XIIIa substrates” (GE Healthcare Limited, priority 1997, dated 2005)

What was measured:
Factor XIIIa = target: T1, Factor XIIIa (Homo sapiens, UniProt P00488); experiment: Factor XIIIa dependency of incorporation (dimethylcasein uptake, normal vs Factor XIII deficient plasma); assay type: biochemical; conditions: 1 KBq/ml, 60 minutes; uptake in normal plasma minus Factor XIII deficient plasma
T1 construct: Factor XIII is transformed into its active form Factor XIIIa by thrombin in the presence of calcium ions; from tissue; host or cells: human plasma
T1 sequence (P00488 39-732 limits assumed): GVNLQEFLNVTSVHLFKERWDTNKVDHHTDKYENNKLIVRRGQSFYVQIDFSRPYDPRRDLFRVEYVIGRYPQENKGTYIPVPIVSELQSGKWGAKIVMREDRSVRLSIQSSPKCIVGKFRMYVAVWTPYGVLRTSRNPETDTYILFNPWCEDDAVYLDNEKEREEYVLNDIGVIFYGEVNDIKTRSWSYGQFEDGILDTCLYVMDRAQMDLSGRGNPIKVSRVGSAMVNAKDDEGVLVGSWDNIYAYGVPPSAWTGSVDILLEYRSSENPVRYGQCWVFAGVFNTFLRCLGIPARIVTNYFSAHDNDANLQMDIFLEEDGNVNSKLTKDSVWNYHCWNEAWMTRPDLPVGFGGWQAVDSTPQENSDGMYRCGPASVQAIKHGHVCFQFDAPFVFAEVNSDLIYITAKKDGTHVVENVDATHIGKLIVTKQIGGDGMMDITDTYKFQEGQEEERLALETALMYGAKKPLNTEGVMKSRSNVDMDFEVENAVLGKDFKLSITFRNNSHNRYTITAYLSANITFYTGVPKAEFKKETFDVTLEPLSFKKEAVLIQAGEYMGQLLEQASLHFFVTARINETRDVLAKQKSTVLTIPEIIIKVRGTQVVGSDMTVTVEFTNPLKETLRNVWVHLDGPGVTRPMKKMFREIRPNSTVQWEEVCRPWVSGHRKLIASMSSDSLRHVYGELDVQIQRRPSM
Experimental: The assay was changed by replacing the mercaptoethanol with aprotinin at a final concentration of 2 μg/ml, and dimethylcasein (DMC) was used instead of casein.

human plasma clots [1] = experiment: Incorporation into human plasma clots (in vitro plasma clot assay); assay type: biochemical; conditions: control vials without thrombin and calcium chloride, 60 minutes
human plasma clots [2] = target: T2, human plasma clots (Homo sapiens, UniProt P00488); experiment: as above; assay type: biochemical
T2 construct: Factor XIII is transformed into its active form Factor XIIIa by thrombin in the presence of calcium ions; from tissue; host or cells: human plasma, clotted in vitro with thrombin and calcium chloride
T2 sequence (P00488 39-732): T1 sequence (P00488 39-732 limits assumed)

[3] = Normal rat biodistribution; assay type: in vivo; conditions: i.v., male Wistar rats, Mean±SD n=3
Method in brief: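 Male Wistar rats (100–150 g) received radiolabelled tracer (8 MBq/ml, 0.1–0.2 ml) i.v. and were dissected mostly at 2, 15, 30, 60 and 240 min. Tissue uptake as % ID, mean±SD, n=3; urine and faeces excretion collected in metabolism cages.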

[4] = tested on: clots induced in rat inferior vena cava; experiment: Incorporation into clots induced in a rat model (rat inferior vena cava model); assay type: in vivo; conditions: rat IVC model
Method in brief: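 Male Wistar rats (250-350 g) were anaesthetised with 15% urethane, and compounds were injected 5 min after clot induction. Animals were killed at 60 min, and clots (about 27 mg) and tissues were weighed and counted. Uptake was given as cpm/g clot by dose/g animal and as clot-to-background ratios.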

[5] = compound injected 5 min post-induction, clot removed after 60 min

Structure (SMILES): NCCCCCNS(=O)(=O)c1ccc(C(=O)NCCCNC(=O)c2ccc(NN)nc2)cc1 [Compound 24, N-[6-hydrazinopyridine-3-carbonyl]-N′-(4-N-(5-aminopentyl)amidosulphonyl)benzoyl propane-1,3-diamine]
- % specific DMC casein uptake (Factor XIIIa): 22.5%
- % retained in plasma clot assay (no thrombin) (human plasma clots [1]): 0.2%
- % specific uptake* (human plasma clots [2]; % retained with thrombin − % retained no thrombin): 13.8%
- % retained in plasma clot assay (with thrombin) (human plasma clots [2]; human plasma with thrombin and calcium chloride, 60 minutes, ca. 20° C.): 14%
- % ID Blood ([3]; 2 min post-injection): 18.2 ± 1.39 % ID
- % ID GI Tract ([3]; 2 min post-injection): 7.48 ± 0.45 % ID
- % ID Heart ([3]; 2 min post-injection): 0.73 + 0.1 % ID
- % ID Kidney ([3]; 2 min post-injection): 10.2 ± 3.07 % ID
- % ID Liver ([3]; 2 min post-injection): 5.38 ± 0.75 % ID
- % ID Lung ([3]; 2 min post-injection): 1.99 ± 0.12 % ID
- % ID Muscle ([3]; 2 min post-injection): 28.5 ± 0.25 % ID
- % ID Urine ([3]; 2 min post-injection): 0.11 ± 0.1 % ID
- % ID Blood ([3]; 15 min post-injection): 7.11 ± 1.29 % ID
- % ID GI Tract ([3]; 15 min post-injection): 23.3 ± 6.5 % ID
- % ID Heart ([3]; 15 min post-injection): 0.3 + 0.08 % ID
- % ID Kidney ([3]; 15 min post-injection): 4.11 ± 1.31 % ID
- % ID Liver ([3]; 15 min post-injection): 6.7 ± 1.21 % ID
- % ID Lung ([3]; 15 min post-injection): 0.78 ± 0.16 % ID
- % ID Muscle ([3]; 15 min post-injection): 17.9 ± 4.38 % ID
- % ID Urine ([3]; 15 min post-injection): 8.64 ± 5.6 % ID
- % ID Blood ([3]; 30 min post-injection): 3.86 ± 0.62 % ID
- % ID GI Tract ([3]; 30 min post-injection): 31.5 ± 11.9 % ID
- % ID Heart ([3]; 30 min post-injection): 0.13 + 0.03 % ID
- % ID Kidney ([3]; 30 min post-injection): 2.52 ± 1.1 % ID
- % ID Liver ([3]; 30 min post-injection): 3.67 ± 0.62 % ID
- % ID Lung ([3]; 30 min post-injection): 0.39 ± 0.06 % ID
- % ID Muscle ([3]; 30 min post-injection): 10.2 ± 1.09 % ID
- % ID Urine ([3]; 30 min post-injection): 31.0 ± 9.41 % ID
- % ID Blood ([3]; 60 min post-injection): 1.6 ± 0.57 % ID
- % ID GI Tract ([3]; 60 min post-injection): 38.8 ± 9.6 % ID
- % ID Heart ([3]; 60 min post-injection): 0.06 + 0.03 % ID
- % ID Kidney ([3]; 60 min post-injection): 1.4 ± 0.38 % ID
- % ID Liver ([3]; 60 min post-injection): 1.6 ± 0.29 % ID
- % ID Lung ([3]; 60 min post-injection): 0.18 ± 0.06 % ID
- % ID Muscle ([3]; 60 min post-injection): 3.62 ± 0.9 % ID
- % ID Urine ([3]; 60 min post-injection): 44.9 ± 7.32 % ID
- % ID Blood ([3]; 240 min post-injection): 0.29 ± 0.06 % ID
- % ID GI Tract ([3]; 240 min post-injection): 46.3 ± 4.4 % ID
- % ID Heart ([3]; 240 min post-injection): 0.02 + 0.01 % ID
- % ID Kidney ([3]; 240 min post-injection): 0.92 ± 0.37 % ID
- % ID Liver ([3]; 240 min post-injection): 0.3 ± 0.03 % ID
- % ID Lung ([3]; 240 min post-injection): 0.05 ± 0.02 % ID
- % ID Muscle ([3]; 240 min post-injection): 1.1 ± 0.32 % ID
- % ID Urine ([3]; 240 min post-injection): 49.51 ± 4.62 % ID
- Clot/Blood ([4]; 60 min): 1.8
- Clot/Heart ([4]; 60 min): 3.9
- Clot/Liver ([4]; 60 min): 0.93
- Clot/Lung ([4]; 60 min): 2.5
- % ID/g (clot uptake) [4, 5]: 0.21 ± 0.02 % ID/g
- Relative conc (cpm/g of clot by dose/g animal) [4, 5]: 0.62 ± 0.1
